MIC, CC50 and hemolysis data for 13 compounds are collected here from ChEMBL document CHEMBL4393656, “Cationic biaryl 1,2,3-triazolyl peptidomimetic amphiphiles targeting Clostridioides (Clostridium) difficile: Synthesis, antibacterial evaluation and an in vivo C. difficile infection model” (Eur J Med Chem, 2019).

The test system of data set [1] is Staphylococcus aureus. The experiment in a line: Growth inhibition of Staphylococcus aureus ATCC 29213 incubated in MHB broth for 24 hrs. The format is organism-based.
Data set [2] deals with Enterococcus faecalis. The experiment in a line: Growth inhibition of Enterococcus faecalis ATCC 29212 incubated in MHB broth for 24 hrs. Type of data set: organism-based.
In data set [3] the test system is Streptococcus pneumoniae. Nature of the data set: Growth inhibition of Streptococcus pneumoniae ATCC 49619 incubated in MHB medium with lysed horse blood and 5% CO2 for 24 hrs. The format is organism-based.
Data set [4] has as its system Clostridioides difficile. The experiment in a line: Antibacterial activity against Clostridium difficile ATCC 700057 incubated for 2 to 4 hrs in pre-reduced brucella broth supplemented with haemin/vitamin K and further incubation in anaerobic condition for 48 hrs. Type of data set: functional.
The subject of data set [5] is Clostridioides difficile. Nature of the data set: Antibacterial activity against Clostridium difficile NSW132 RT027 incubated for 2 to 4 hrs in pre-reduced brucella broth supplemented with haemin/vitamin K and further incubation in anaerobic condition for 48 hrs. The format is functional.
The subject of data set [6] is Escherichia coli. Nature of the data set: Growth inhibition of Escherichia coli ATCC 25922 incubated for 18 hrs. Type of data set: organism-based.
The test system of data set [7] is Klebsiella pneumoniae. Nature of the data set: Growth inhibition of Klebsiella pneumoniae ATCC 700603 incubated for 18 hrs. The format is organism-based.
Data set [8] has as its system Acinetobacter baumannii. Nature of the data set: Growth inhibition of Acinetobacter baumannii ATCC 19606 incubated for 18 hrs without shaking by absorbance based monochromator plate reader analysis. The format is organism-based, ATCC 19606 = CIP 70.34 = JCM 6841. Particulars: in vitro.
Data set [9] deals with Pseudomonas aeruginosa. Nature of the data set: Growth inhibition of Pseudomonas aeruginosa ATCC 27853 incubated for 18 hrs. Type of data set: organism-based.
The test system of data set [10] is Staphylococcus aureus. The experiment in a line: Growth inhibition of methicillin-resistant Staphylococcus aureus ATCC 43300 incubated for 18 hrs. The format is organism-based.
Data set [11] is described as follows: Cytotoxicity against HEK293 cells assessed as decrease in cell viability after 20 hrs by resazurin dye-based fluorescence assay. The note with it: human.
The nature of data set [12]: Haemolytic activity in sheep erythrocytes assessed as induction of haemolysis at 5 ug/ml incubated for 2 hrs relative to control. The format is cell-based, Ovis aries, Erythrocyte. The note with it: read-out: Activity.
A short description of data set [13]: Haemolytic activity in sheep erythrocytes assessed as induction of haemolysis at 50 ug/ml incubated for 2 hrs relative to control. The note with it: read-out: Activity. The format is cell-based, Ovis aries, Erythrocyte.
For data set [14], the system named is Staphylococcus aureus. The experiment in a line: Growth inhibition of methicillin resistant Staphylococcus aureus NCTC 10442 incubated in MHB medium for 24 hrs. The format is organism-based.

Turning to `CC(C)CCOc1ccccc1-c1ccccc1OCc1cn([C@H](CCCNC(=N)N)C(=O)N[C@H](CCCCN)Cn2cc(CC3CCCCC3)nn2)nn1.Cl.Cl`, the MIC turned out to be 4 µg/mL in data set [1]; 4 µg/mL in [2]; 2 µg/mL in [3]; 8 µg/mL in [4]; 16 µg/mL in [5]; 16 µg/mL in data set [6]. The MIC in data set [7] turned out to be 16 µg/mL; in data set [8], 16 µg/mL; in data set [9], 16 µg/mL; in data set [10], 8 µg/mL. For the same compound, in [11], the CC50 (in general, the concentration that lowers cell viability or growth by half) at 20 h was over 32 µg/mL. For the same compound, in data set [12], the hemolysis at 2 h, 5 ug/ml came to 1.6%. The hemolysis at 2 h, 50 ug/ml in data set [13] was determined as 33.7%.

`CC(C)CCOc1ccc2ccccc2c1-c1c(OCc2cn([C@H](CCCNC(=N)N)C(=O)N[C@H](CCCCN)Cn3cc(CC4CCCCC4)nn3)nn2)ccc2ccccc12.Cl.Cl`: the MIC in data set [1] was 4 µg/mL; in [2] it was 4 µg/mL; in data set [3], 2 µg/mL; in data set [4], 8 µg/mL; in data set [5], 8 µg/mL; in data set [6], over 32 µg/mL. In addition, the figures for the MIC in data set [7], in data set [8] and in data set [9] were over 32 µg/mL, 32 µg/mL and 32 µg/mL, respectively. In addition, the CC50 at 20 h in data set [11] is over 32 µg/mL. Besides, the hemolysis at 2 h, 5 ug/ml in data set [12] is 1.8%. Besides, the hemolysis at 2 h, 50 ug/ml in [13] was 71.5%.

As to `CC(C)CCOc1ccc2ccccc2c1-c1c(OCc2cn([C@H](CCCCN)C(=O)N[C@H](CCCNC(=N)N)Cn3cc(CCc4ccccc4)nn3)nn2)ccc2ccccc12.Cl.Cl`, the MIC is 4 µg/mL in data set [1]; 4 µg/mL in [2]; 4 µg/mL in [3]; 16 µg/mL in data set [4]; 16 µg/mL in data set [5]; over 32 µg/mL in [6]. Also, the MIC was over 32 µg/mL in data set [7], 8 µg/mL in data set [8], 16 µg/mL in data set [9] and 2 µg/mL in data set [10]. The CC50 at 20 h in [11] was over 32 µg/mL. The hemolysis at 2 h, 5 ug/ml in data set [12] was found to be 1.5%. In data set [13], the hemolysis at 2 h, 50 ug/ml was determined as 75.2%.

Turning to `CC(C)CCOc1ccccc1-c1ccccc1OCc1cn([C@H](CCCNC(=N)N)C(=O)NCc2ccccc2)nn1.Cl`, the MIC in data set [1] was found to be 4 µg/mL; in data set [14], 8 µg/mL; in [2], 8 µg/mL; in data set [3], 4 µg/mL; in [4], 32 µg/mL; in [5] it was 64 µg/mL. The MIC in [6] is over 32 µg/mL; in data set [7] it was over 32 µg/mL; in data set [8], 32 µg/mL; in data set [9], over 32 µg/mL; in data set [10] it was 8 µg/mL. The CC50 at 20 h in [11] worked out at 16.8 µg/mL.

Regarding `CC(C)CCOc1ccc2ccccc2c1-c1c(OCc2cn([C@H](CCCNC(=N)N)C(=O)NCCc3ccccc3)nn2)ccc2ccccc12.Cl`, the MIC in data set [1] was 8 µg/mL; in [2], 4 µg/mL; in [3] it was 16 µg/mL; in data set [4], 16 µg/mL; in [5], 64 µg/mL; in data set [6] it was over 32 µg/mL. The MIC in [7] was over 32 µg/mL; in data set [8], over 32 µg/mL; in [9], over 32 µg/mL; in [10] it was 8 µg/mL. Also, the 50% cytotoxic concentration (CC50) at 20 h in [11] is over 32 µg/mL. Moreover, the hemolysis at 2 h, 5 ug/ml in data set [12] came out at 0.1%. Further, the hemolysis at 2 h, 50 ug/ml in data set [13] amounted to 55.2%.

As for `CC(C)CCOc1ccccc1-c1ccccc1OCc1cn([C@H](CCCCN)C(=O)NCCc2ccc(F)cc2)nn1.Cl`, the MIC in data set [1] was 4 µg/mL; in [14], 8 µg/mL; in data set [2] it was 8 µg/mL; in data set [3], 8 µg/mL; in data set [4], 32 µg/mL; in data set [5], 64 µg/mL. Further, the MIC is over 32 µg/mL in data set [6]; over 32 µg/mL in data set [7]; 16 µg/mL in data set [8]; over 32 µg/mL in data set [9]; 8 µg/mL in data set [10]. Moreover, the CC50 at 20 h in data set [11] amounted to 5.5 µg/mL.

Take `CC(C)CCOc1ccc2ccccc2c1-c1c(OCc2cn([C@H](CCCNC(=N)N)C(=O)NCc3ccccc3)nn2)ccc2ccccc12.Cl`: the MIC in [1] worked out at 4 µg/mL; in [14] it was 8 µg/mL; in [2], 2 µg/mL; in data set [3], 8 µg/mL; in data set [4] it was 16 µg/mL; in data set [5], 16 µg/mL. The MIC is over 32 µg/mL in [6]; over 32 µg/mL in [7]; over 32 µg/mL in data set [8]; over 32 µg/mL in data set [9]; 8 µg/mL in data set [10]. Moreover, the CC50 at 20 h in data set [11] was 16.5 µg/mL.

`CC(C)CCOc1ccccc1-c1ccccc1OCc1cn([C@H](CCCNC(=N)N)C(=O)N[C@H](CCCCN)Cn2cc(CCc3ccccc3)nn2)nn1.Cl.Cl`: the MIC worked out at 4 µg/mL in data set [1]; 8 µg/mL in [14]; 8 µg/mL in data set [2]; 2 µg/mL in data set [3]; 16 µg/mL in data set [4]; 16 µg/mL in [5]. Also, the MIC in [6] was determined as 16 µg/mL; in data set [7], 16 µg/mL; in data set [8], 32 µg/mL; in data set [9], 16 µg/mL; in [10], 4 µg/mL. In addition, the CC50 at 20 h in data set [11] is over 32 µg/mL.

As to `CC(C)CCOc1ccccc1-c1ccccc1OCc1cn([C@H](CCCNC(=N)N)C(=O)Nc2cccc(F)c2)nn1.Cl`, the MIC in data set [1] is 4 µg/mL; in data set [14], 8 µg/mL; in [2] it was 8 µg/mL; in [3] it was 8 µg/mL; in data set [4] it was 32 µg/mL; in [5], 64 µg/mL. Further, the MIC was over 32 µg/mL in [6]; over 32 µg/mL in [7]; over 32 µg/mL in data set [8]; over 32 µg/mL in data set [9]; 4 µg/mL in data set [10]. Further, the CC50 at 20 h in data set [11] was over 32 µg/mL.

Turning to `CC(C)CCOc1ccccc1-c1ccccc1OCc1cn([C@H](CCCCN)C(=O)N[C@H](CCCNC(=N)N)Cn2cc(Cc3ccccc3)nn2)nn1.Cl.Cl`, the MIC in data set [1] worked out at 4 µg/mL; in data set [2], 8 µg/mL; in [3], 4 µg/mL; in data set [4], 8 µg/mL; in [5] it was 16 µg/mL; in [6] it was 8 µg/mL. The MIC came out at 32 µg/mL in data set [7], 16 µg/mL in [8], 16 µg/mL in data set [9] and 4 µg/mL in data set [10]. The CC50 at 20 h in [11] came out at 17.1 µg/mL.

Consider `CC(C)CCOc1ccccc1-c1ccccc1OCc1cn([C@H](CCCCN)C(=O)N[C@H](CCCNC(=N)N)Cn2cc(C3CCCCC3)nn2)nn1.Cl.Cl`, for which the MIC in data set [1] is 16 µg/mL; in [2], 16 µg/mL; in [3] it was 32 µg/mL; in [4], 64 µg/mL; in data set [5], 128 µg/mL; in [6], 8 µg/mL. Further, the MIC in data set [7] is 16 µg/mL; in data set [8] it was 8 µg/mL; in data set [9], 16 µg/mL; in data set [10], 4 µg/mL. The CC50 at 20 h in [11] turned out to be 19.8 µg/mL.

For `COc1cc(NC(=O)[C@@H](CCCNC(=N)N)n2cc(COc3ccccc3-c3ccccc3OCCC(C)C)nn2)cc(OC)c1.Cl`, the MIC was 4 µg/mL in data set [1]; 4 µg/mL in data set [2]; 4 µg/mL in data set [3]; 32 µg/mL in data set [4]; 32 µg/mL in data set [5]; over 32 µg/mL in [6]. Moreover, the MIC is over 32 µg/mL in data set [7], over 32 µg/mL in [8], over 32 µg/mL in [9] and 8 µg/mL in data set [10]. In addition, the half-maximal cytotoxic concentration (CC50) at 20 h in [11] came out at 12.2 µg/mL.

Take `CC(C)CCOc1ccc2ccccc2c1-c1c(OCC(=O)N[C@H](CCCNC(=N)N)C(=O)NCCc2ccccc2)ccc2ccccc12.Cl`: the MIC in data set [1] was 2 µg/mL; in data set [2] it was 4 µg/mL; in [3], 2 µg/mL; in data set [4] it was 32 µg/mL; in data set [5], 32 µg/mL; in [6] it was over 32 µg/mL. In addition, the MIC in [7] is over 32 µg/mL; in [8], over 32 µg/mL; in data set [9], over 32 µg/mL; in data set [10] it was 4 µg/mL. The CC50 at 20 h in data set [11] is over 32 µg/mL.
